Measured values reported in PubChem BioAssay (NCI).
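Cells were grown in 96-well plates and exposed to each compound for 48 hours at five concentrations; endpoints were interpolated linearly between bracketing concentrations, or set to the highest concentration if not reached. Here, GI50 denotes the concentration required for 50% inhibition of growth. The concentration for full growth arrest is given as TGI.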

Experiments:
Experiment in all cases: NCI tumour cell line growth inhibition, 48 h
NCI-H522 lung = test system: NCI-H522 lung
A498 renal = test system: A498 renal
CAKI-1 renal = test system: CAKI-1 renal
HCT-116 colon = test system: HCT-116 colon
COLO 205 colon = test system: COLO 205 colon
IGROV1 ovarian = test system: IGROV1 ovarian
UACC-257 melanoma = test system: UACC-257 melanoma
MCF7 breast = test system: MCF7 breast
PC-3 prostate = test system: PC-3 prostate
HOP-62 NSCLC = test system: HOP-62 NSCLC

Compound | GI50 (NCI-H522 lung) | TGI (NCI-H522 lung) | GI50 (A498 renal) | TGI (A498 renal) | GI50 (CAKI-1 renal) | TGI (CAKI-1 renal) | GI50 (HCT-116 colon) | TGI (HCT-116 colon) | GI50 (COLO 205 colon) | TGI (COLO 205 colon) | GI50 (IGROV1 ovarian) | TGI (IGROV1 ovarian) | GI50 (UACC-257 melanoma) | TGI (UACC-257 melanoma) | GI50 (MCF7 breast) | TGI (MCF7 breast) | GI50 (PC-3 prostate) | TGI (PC-3 prostate) | GI50 (HOP-62 NSCLC) | TGI (HOP-62 NSCLC)
CC(C)C[C@H](NC(=O)/C=C/Cn1ccc2ccccc2c1=O)B(O)O | 2.52 µM | 6.39 µM | 1.7 µM | 7.95 µM | 4.95 µM | > 100 µM | 2.95 µM | 12.6 µM | 5.93 µM | > 100 µM | 10.8 µM | > 100 µM | 2.12 µM | 7.02 µM | 5.33 µM | > 100 µM | 17.4 µM | > 100 µM | 4.9 µM | 25.9 µM
Cc1ccc2[nH]c(O)c(N=Nc3ccc(S(N)(=O)=O)cc3)c2c1 | 8.94 µM | > 25 µM | > 25 µM | > 25 µM | 17.8 µM | > 25 µM | 8.87 µM | > 25 µM | > 24.2 µM | > 25 µM | > 16.1 µM | > 25 µM | > 25 µM | > 25 µM | 8.4 µM | > 25 µM | 11.9 µM | > 25 µM | 11.5 µM | > 25 µM
CN(C)C(=O)[C@H](O)[C@H](Cc1ccccc1)NC(=O)c1cc2cc(Cl)ccc2[nH]1 | 21.5 µM | 68.7 µM | 12.1 µM | 54.1 µM | 19.3 µM | > 77.5 µM | 25 µM | > 87 µM | 16.1 µM | 30.3 µM | 22.4 µM | 69.1 µM | 16.2 µM | 43.5 µM | 22.1 µM | > 83.3 µM | 24.4 µM | > 89.6 µM | 22.6 µM | 66.6 µM
C[C@H](O)C(=O)N1CCC(CCn2c(Sc3cc4c(cc3Br)OCO4)nc3c(N)ncnc32)CC1 | 0.791 µM | > 52.2 µM | 3.35 µM | > 100 µM | 2.26 µM | > 100 µM | 0.461 µM | > 100 µM | 0.467 µM | > 100 µM | 1.32 µM | > 100 µM | 2.13 µM | > 100 µM | 0.368 µM | > 100 µM | 1.16 µM | > 100 µM | 1.73 µM | > 100 µM
CC1=C[C@H]2c3c(c(O)c(O)c4oc(-c5ccccc5)cc(=O)c34)[C@H](c3cc(O)c(O)c4oc(-c5ccccc5)cc(=O)c34)[C@H]2C(C)(C)C1 | 1.77 µM | 6.23 µM | 0.659 µM | 3.72 µM | 0.621 µM | 4.57 µM | 0.272 µM | 1.45 µM | 1.48 µM | 11.6 µM | 0.486 µM | 7.51 µM | 1.72 µM | 9.47 µM | 0.597 µM | 9.16 µM | 1.44 µM | 14.8 µM | 0.76 µM | 12.9 µM
CC1=C(C(=O)Nc2ccc(F)c(Cl)c2)C(c2cccc(O)c2)NC(=O)N1 (stereo not given) | 49 µM | > 100 µM | 5.04 µM | > 100 µM | > 100 µM | > 100 µM | 70.7 µM | > 100 µM | > 100 µM | > 100 µM | 36.1 µM | > 100 µM | 54.3 µM | > 100 µM | 58.8 µM | > 100 µM | 63.9 µM | > 100 µM | > 100 µM | > 100 µM
CN(C)CCN1C(=O)c2ccc3c4c(ccc(c24)C1=O)C(=O)N(CCN=C=S)C3=O | 0.0311 µM | 0.145 µM | 0.0529 µM | 0.207 µM | 0.0448 µM | 0.785 µM | 0.027 µM | 0.134 µM | 0.0254 µM | 0.0922 µM | 0.051 µM | 0.236 µM | 0.0849 µM | 0.216 µM | 0.0257 µM | 0.129 µM | 0.0513 µM | 0.667 µM | 0.0503 µM | 0.194 µM
COc1c(CCl)cc(-c2cc(=O)c3ccccc3s2)cc1CCl | – | – | – | 90.7 µM | – | > 100 µM | – | > 100 µM | – | > 100 µM | – | > 100 µM | – | > 100 µM | – | > 22.7 µM | – | > 100 µM | – | 32.6 µM
CC(C)(C[C@H]1CN(S(=O)(=O)c2cccc(C(F)(F)F)c2)c2cc(-c3cc(F)cc(OC(F)F)c3)ccc2O1)C(=O)O | 2.5 µM | 10.7 µM | 4.5 µM | 16.9 µM | 10.5 µM | 24.4 µM | 4.01 µM | 15.8 µM | 11.3 µM | 32.7 µM | 9.43 µM | 27.6 µM | 11.5 µM | 27.3 µM | 3.98 µM | 22.4 µM | 5.04 µM | 18.9 µM | 6.65 µM | 23.8 µM
COc1ccc(CCN2COc3c([C@@H](C)CCC=C(C)C)ccc(C)c3C2)cc1OC | – | – | 1.96 µM | 11.9 µM | 2.73 µM | 12.1 µM | 2.17 µM | 4.94 µM | 1.79 µM | 3.19 µM | 1.08 µM | 3.52 µM | 2.93 µM | 10.9 µM | 3.29 µM | 11 µM | 1.95 µM | 5.83 µM | 1.86 µM | 3.62 µM
O=c1cccc(C#CC#CC2=CCCCC2)o1 | 4.03 µM | 10.9 µM | 19.8 µM | 36.8 µM | 6.48 µM | 10.3 µM | 1.16 µM | 3.67 µM | 4.58 µM | 13.5 µM | 5.4 µM | 18.1 µM | 7.49 µM | 12.9 µM | 5.04 µM | 13.4 µM | 6.6 µM | 11.6 µM | 8.65 µM | 16.3 µM
Cc1ccc(-c2nc3ccc(Cl)cc3c(=O)n2N2C(=O)CSC2c2ccccc2Cl)cc1 (stereo not given) | – | – | 5.91 µM | > 100 µM | 4.82 µM | > 100 µM | 5.51 µM | > 100 µM | 9 µM | > 100 µM | 3.69 µM | > 100 µM | > 100 µM | > 100 µM | 26.9 µM | > 100 µM | 83 µM | > 100 µM | 1.98 µM | 5.09 µM
